Reference: patent US20120237566A1, “INHIBITING STOMACH-ACID RELEASE, REDUCING INFLAMMATION AND PREVENTING AND TREATING CANCER: COMPOSITIONS AND METHODS OF USE” (Venture Isles, LLC, priority 2011, published 2012)
“Also recorded” adds a separate entry of the source. Read-outs that look alike come from different tables or passages of the source.

Tests used:
high-affinity K site = high-affinity K site (Homo sapiens, UniProt P20648); conditions: cited from earlier work
[1] = tested on: gastric microsomal K-pNPPase; experiment: K-pNPPase activity of gastric microsomes; format: biochemical
[2] = tested on: chambered bull frog gastric mucosa; conditions: cited from earlier work
Na—K-ATPase = conditions: cited from earlier work
H, K-ATPase = H, K-ATPase (Homo sapiens, UniProt P20648); conditions: cited from earlier work
mitosis = conditions: cited from earlier work
neutrophil elastase = biological target: T1, neutrophil elastase (Homo sapiens, UniProt P08246); conditions: cited from earlier work
T1 sequence (P08246 30-267): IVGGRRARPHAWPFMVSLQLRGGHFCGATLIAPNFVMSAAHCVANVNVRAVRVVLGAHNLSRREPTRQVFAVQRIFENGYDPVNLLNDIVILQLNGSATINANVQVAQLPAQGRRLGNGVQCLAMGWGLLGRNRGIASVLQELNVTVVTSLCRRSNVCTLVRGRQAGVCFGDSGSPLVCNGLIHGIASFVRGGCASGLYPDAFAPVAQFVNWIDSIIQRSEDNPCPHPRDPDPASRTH

activated neutrophils = conditions: micromolar EGCG; cited from earlier work
neutrophil chemotaxis = conditions: in vitro; cited from earlier work
[3] = tested on: neutrophil-mediated angiogenesis; conditions: oral; in vivo; cited from earlier work
[4] = tested on: chambered bull frog gastric mucosa; experiment: acid secretion by chambered bull frog gastric mucosa in vitro; format: cell-based
Text: The method further comprises Step 2 that includes testing to determine if a candidate molecule inhibits the H, K-ATPase activity (inhibits the pump turnover), then test in an appropriate animal model(s) for the antisecretary activity and select the best candidates for clinical trial, as in Step 6.
(§1) Heavy-metal ions generally comprise Ba, Ca, and Zn and show synergistic inhibition when used in combination with thiocyanate and isothiocyanate. Zinc (Zn) inhibits acid secretion by a mechanism quite different than Barium and Calcium.
However, SCN and ZN include different modes of operation.

gastric H, K-ATPase [5] = experiment: H, K-ATPase activity of isolated gastric microsomal vesicles; format: biochemical
Text: as §1

lipoxygenase = conditions: cited from earlier work
[6] = tested on: AP-1 mediated transcription; conditions: in vitro; cited from earlier work
[7] = tested on: inducible nitric oxide synthase (iNOS); conditions: activated macrophages; cited from earlier work
gastric H, K-ATPase [8] = conditions: cited from earlier work
[9] = biological target: highly purified H, K-ATPase (Homo sapiens, UniProt P20648); conditions: cited from earlier work
highly purified H, K-ATPase, sequence (P20648 whole entry): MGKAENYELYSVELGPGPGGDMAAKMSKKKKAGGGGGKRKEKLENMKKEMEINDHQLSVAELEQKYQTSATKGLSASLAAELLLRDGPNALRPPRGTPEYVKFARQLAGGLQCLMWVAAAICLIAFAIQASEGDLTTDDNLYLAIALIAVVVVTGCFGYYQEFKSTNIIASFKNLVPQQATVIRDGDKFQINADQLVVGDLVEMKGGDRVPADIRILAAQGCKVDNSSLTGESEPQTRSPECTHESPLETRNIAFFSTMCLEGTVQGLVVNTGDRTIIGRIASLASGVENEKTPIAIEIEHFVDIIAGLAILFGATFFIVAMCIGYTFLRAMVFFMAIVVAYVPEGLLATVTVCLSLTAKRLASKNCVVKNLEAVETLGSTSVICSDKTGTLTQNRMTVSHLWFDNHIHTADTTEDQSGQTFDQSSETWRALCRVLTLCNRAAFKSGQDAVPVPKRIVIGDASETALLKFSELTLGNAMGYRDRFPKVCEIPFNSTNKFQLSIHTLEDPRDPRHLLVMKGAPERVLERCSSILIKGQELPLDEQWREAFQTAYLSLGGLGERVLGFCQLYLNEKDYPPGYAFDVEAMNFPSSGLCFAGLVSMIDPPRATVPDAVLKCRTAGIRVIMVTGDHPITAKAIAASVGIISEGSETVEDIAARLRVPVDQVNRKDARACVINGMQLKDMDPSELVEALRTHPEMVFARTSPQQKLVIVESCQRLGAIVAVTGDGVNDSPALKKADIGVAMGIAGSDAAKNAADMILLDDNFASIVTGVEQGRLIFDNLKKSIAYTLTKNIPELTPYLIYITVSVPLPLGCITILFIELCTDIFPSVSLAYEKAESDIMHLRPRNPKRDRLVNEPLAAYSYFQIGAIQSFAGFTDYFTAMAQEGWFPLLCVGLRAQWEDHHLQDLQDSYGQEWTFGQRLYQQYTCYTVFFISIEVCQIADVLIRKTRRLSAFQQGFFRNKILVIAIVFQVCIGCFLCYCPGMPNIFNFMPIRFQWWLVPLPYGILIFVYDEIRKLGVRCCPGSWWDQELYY
highly purified H, K-ATPase, sequence (P51164 whole entry partner): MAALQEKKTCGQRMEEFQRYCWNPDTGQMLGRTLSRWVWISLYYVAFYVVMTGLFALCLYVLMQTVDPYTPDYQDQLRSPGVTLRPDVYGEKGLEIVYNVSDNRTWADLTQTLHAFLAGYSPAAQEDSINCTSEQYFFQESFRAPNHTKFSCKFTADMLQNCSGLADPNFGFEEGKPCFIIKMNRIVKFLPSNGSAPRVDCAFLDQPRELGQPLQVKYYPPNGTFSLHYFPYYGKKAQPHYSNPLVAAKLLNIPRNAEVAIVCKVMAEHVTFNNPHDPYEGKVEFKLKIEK

high-affinity K site, sequence (P20648 whole entry): as the sequence (P20648 whole entry) above
high-affinity K site, sequence (P51164 whole entry partner): as the sequence (P51164 whole entry partner) above
H, K-ATPase, sequence (P20648 whole entry): as the sequence (P20648 whole entry) above
H, K-ATPase, sequence (P51164 whole entry partner): as the sequence (P51164 whole entry partner) above

2-[3,4]-dichlorophenylamino quinolizium bromide [nolinium bromide]
interaction with the high-affinity K site (high-affinity K site): interacts competitively

[Ba+2] [Barium]
K-pNPPase activity, antagonism with K [1]: parallel Ba/K antagonism | reversal of inhibition of acid secretion by higher concentration of K [2]: competitively reverses | acid secretion ([2]; higher concentration (above 1 mM)): blocks the acid secretion | acid secretion ([2]; less than 1 mM concentration): slight stimulation

Clc1ccccc1C(c1ccccc1)(c1ccccc1)n1ccnc1 [CLT, clotrimazole]
inhibition of Na—K-ATPase (Na—K-ATPase): potent inhibitors | inhibition of H, K-ATPase (H, K-ATPase): potent inhibitors

[Ca+2] [Calcium]
response of K-pNPPase inhibition to higher K [1]: nonresponsive to higher K | K-pNPPase activity ([1]; concentrations comparable to Ba): strong inhibition

N#CSc1ccc(Cl)cc1Cl [DCPT, 2,4-dichlorophenyl thiocyanate]
anti-proliferative / antimitotic activity (mitosis): anti-proliferative property; also recorded: antimitotic

O=C(O[C@@H]1Cc2c(O)cc(O)cc2O[C@@H]1c1cc(O)c(O)c(O)c1)c1cc(O)c(O)c(O)c1 [EGCG, (−)epigallocatechin-3-gallate]
neutrophil elastase inhibition (neutrophil elastase): strongly inhibits | apoptosis of activated neutrophils (activated neutrophils): inhibits | reactive oxygen species activity (activated neutrophils): represses | chemokine-induced neutrophil chemotaxis (neutrophil chemotaxis): dramatically inhibits | neutrophil-mediated angiogenesis [3]: block

Cc1nc2c(OCc3ccccc3)cccn2c1CC#N [SCH 28080]
interaction with the high-affinity K site (high-affinity K site): interacts competitively

[Zn+2] [Zn, Zinc]
inhibition of gastric-acid secretion [4]: potent inhibitors | reversal of inhibition of acid secretion by beta-mercaptoehanol (βME) in the secretary solution [4]: could be reversed | reversal of inhibition of gastric acid secretion by raising K-salt in the bathing medium [4]: totally ineffective | restoration of acid secretion after Zn inhibition ([4]; 1 mM beta-mercapto-ehanol (βME)): promptly restored | acid secretion ([4]; at a concentration of 60 added to the secretary solution, within 15 min): reduces the acid secretion to near zero | activity of the isolated H, K-ATPase (gastric H, K-ATPase [5]): strongly inhibited | H, K-ATPase activity (gastric H, K-ATPase [5]; 2 μM): abolished | H, K-ATPase activity (gastric H, K-ATPase [5]; 2 μM, listed as Zinc): abolishes | sensitivity of H, K-ATPase activity relative to pNPPase activity (gastric H, K-ATPase [5]; inhibition by Zn): ten times more sensitive | activity of the isolated pNPPase [1]: strongly inhibited | K-pNPPase activity ([1]; 20 μM): abolishes

COc1cc(C=CC(=O)CC(=O)C=Cc2ccc(O)c(OC)c2)ccc1O [curcumin, 1,7-bis(4-hydroxy-3-methoxyphenyl)-1,6-heptadiene-3,5-dione]
lipoxygenase inhibition (lipoxygenase): inhibits | AP-1 mediated transcription related to cytokine regulation [6]: inhibits | inducible nitric oxide synthase (iNOS) [7]: suppresses

N#C[S-].[Na+] [thiocyanate, Sodium thiocyanate]
inhibition of gastric-acid secretion [4]: potent inhibitors | reversal of inhibition of gastric acid secretion by raising K-salt in the bathing medium [4]: can be reversed | H, K-ATPase activity (gastric H, K-ATPase [5]; 10 mM): totally ineffective | reversal of K-pNPPase inhibition by high K [1]: reversed by high K | K-pNPPase activity ([1]; 10 mM): abolished | gastric H transport [2]: potent inhibitor | H, K-ATPase mediated hydrolysis of ATP (ATPase activity) (gastric H, K-ATPase [8]): does not inhibit | binding to purified H, K-ATPase [9]: specific binding | displacement of bound SCN by K [9]: could be displaced by K | binding to purified H, K-ATPase ([9]; listed as SCN): binding to a specific site
